Results on 58 molecules are retold here after the METLIN SMRT retention time set (Domingo-Almenara et al. 2019).

The structures appear in SMILES notation.

This data set in a line: gradient 5% acetonitrile 3 min, to 50% in 2 min, to 85% in 15 min, held 3 min, 100 µL/min. The note with it: column: Zorbax Extend-C18 2.1 x 50 mm; eluents: water / acetonitrile, 0.1% formic acid. In a few lines: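 Data were gathered over 3 months by HPLC coupled to a quadrupole time-of-flight mass spectrometer, operated in positive and negative ionization mode. Mixtures of ~100 pure standards ran on a Zorbax Extend-C18 column (2.1 × 50 mm, 1.8 μm) at 100 μL/min, with water and acetonitrile each containing 0.1% formic acid and dead and dwell volumes of 40 μL and 900 μL. Retention time was read from adduct peaks picked by computer and checked manually.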
`COc1ccc(-c2ncc3c(n2)CCN(S(=O)(=O)c2ccc(C)cc2C)C3)cc1` returned an RP-LC retention time of 1140 s. Molecule `Cc1ccc2snc(C(=O)NC(C)C)c2c1` came in with an RP-LC retention time of 986 s. `CCn1cc(-c2nc(C)c(C(=O)Nc3cc(OC)ccc3OC)s2)c2cccnc21` showed an RP-LC retention time of 1130 s. Regarding `CC(C)(C)C(=O)Nc1ccc(C(=O)NCCNC(=O)Nc2ccccc2Cl)cc1`, the RP-LC retention time was 738 s. In turn, `O=C(Cn1cccn1)N1CC(F)(F)C[C@H]1c1nc(C2CC2)no1` yielded an RP-LC retention time of 723 s. In turn, `CCc1ccccc1NC(=O)C1CCCN1S(=O)(=O)c1cc2c(cc1C)NC(=O)CO2` (stereo not drawn) yielded an RP-LC retention time of 821 s. As for `CCOc1ccc(-c2noc(N3CCC(C(=O)N4CCN(C)CC4)CC3)n2)cc1OC`, the figure is 626 s.

With `Cc1cc(S(=O)(=O)N2CCC(n3cnnc3C)CC2)ccc1Cl`, the RP-LC retention time worked out at 739 s. Molecule `CCN(C(=O)Cc1csc2nc(-c3ccc(OC)c(OC)c3)cn12)c1ccccc1` had an RP-LC retention time of 772 s. The molecule `CC(C)c1noc(-c2cc(=O)n(CC(=O)Nc3ccc(F)cc3)c3ccccc23)n1` gave an RP-LC retention time of 995 s.

Regarding `Cc1sc(NC(=O)c2ccccc2)nc1-c1ccc2c(c1)NC(=O)C(C)O2` (stereo not drawn), the RP-LC retention time turned out to be 931 s. Consider `CCc1cc(=O)n(CC(=O)NCc2ccccc2)c(N)n1`, for which the RP-LC retention time worked out at 566 s. Consider `Cc1cc(C)n(-c2ccc(=O)n(CCNC(=O)c3cc(C)on3)n2)n1`, for which the RP-LC retention time worked out at 640 s. `Cc1oc(-c2ccccc2)nc1Cc1noc(COc2ccc(F)cc2)n1` came in with an RP-LC retention time of 1100 s. For `O=C(c1ccccc1)c1ccc(-c2ccc(O)cc2)cc1` the value was 1000 s. Regarding `CC(C)c1noc(-c2cc(=O)n(CC(=O)NCc3cccs3)c3ccccc23)n1`, the RP-LC retention time worked out at 933 s. With `CCOc1nc2ccccc2nc1N1CCCC(C(=O)NC2CCCCCC2)C1` (stereo not drawn), the RP-LC retention time was 1250 s. Regarding `COCCCNC(=O)N1CCCC(C)(C(=O)NCc2ccccc2C)C1` (stereo not drawn), the RP-LC retention time amounted to 720 s. In turn, `COc1ccc2[nH]c(=O)c(CCC(=O)NCc3ccncc3)cc2c1` returned an RP-LC retention time of 574 s. In turn, `CCN(CC)c1ccc(NC(=O)CSc2cc(N3CCCC3)ncn2)c(C)c1` registered an RP-LC retention time of 600 s. `CSc1cccc(NC(=O)N2CCN(c3cc(C)nc(N4CCOCC4)n3)CC2)c1` displayed an RP-LC retention time of 650 s. As to `COc1cc(NC(=O)Cn2c(=O)n(C3CCCCC3)c3ncccc32)cc(OC)c1`, the RP-LC retention time was 954 s. As for `O=C(CCn1nnc2cc(-c3noc(Cc4ccc(Cl)cc4)n3)ccc21)N1CCCC1`, the figure is 921 s; as for `Cn1ncc2c(Nc3cccc(Cl)c3)nc(N3CCCC3)nc21`, 978 s. `CCCn1cc(S(=O)(=O)NCc2ccc(F)cc2Cl)c2cccnc21` displayed an RP-LC retention time of 948 s. Molecule `COc1ccc(N2CCN(c3nc4ccc(C)cc4cc3-c3noc(C)n3)CC2)cc1` displayed an RP-LC retention time of 700 s. Regarding `CC(NC(=O)Cc1nnc(-c2ccc3ncccc3c2)o1)c1ccccc1` (stereo not drawn), the RP-LC retention time worked out at 690 s. For `Cc1cc(C)c(NC(=O)Cn2cccc2-c2nc(-c3ccc4c(c3)OCO4)no2)c(C)c1` the value was 1120 s; for `CCN1C(=O)C2CC3(CCN(C(=O)c4cccs4)CC3)CN2C1=O` (stereo not drawn), 701 s.

Turning to `CCc1nc2c(c(=O)n1CC(=O)NCc1ccc(C)c(C)c1)CN(Cc1ccccc1)CC2`, the RP-LC retention time turned out to be 694 s. Regarding `CC1Oc2ccc(S(=O)(=O)N3CCC(C(=O)N4CCCc5ccccc54)CC3)cc2NC1=O` (stereo not drawn), the RP-LC retention time was found to be 891 s. `Cc1ccc2[nH]cc(CCNC(=O)C3CCN(c4ccc(N5CCCCC5)nn4)CC3)c2c1` gave an RP-LC retention time of 685 s.

`Cc1ccnc(SCC(=O)Nc2nc(-c3ccccc3)cs2)n1` had an RP-LC retention time of 917 s.

Turning to `CCc1cccc(NC(=O)N2CCC(OC3CCN(S(C)(=O)=O)CC3)CC2)c1`, the RP-LC retention time stood at 803 s. As for `O=C(CSc1ncc(-c2ccccc2)[nH]1)Nc1nc(-c2ccc(C3CCCCC3)cc2)cs1`, the figure is 1420 s; as for `COCc1nc(C2CCN(S(=O)(=O)c3ccc(C#N)cc3)C2)no1` (stereo not drawn), 785 s; as for `COc1ccc(CC(=O)NCc2ccc3c(c2)ncn3C(C)C)cc1`, 600 s. As for `COc1cccc(-c2nc(-c3ccc4oc(C)nc4c3)no2)c1`, the RP-LC retention time is 1110 s. `COc1ccc(-c2ncc3c(n2)CCN(S(=O)(=O)c2cccc(F)c2)C3)cc1`: the RP-LC retention time worked out at 1060 s. As for `CCOC(=O)c1cc(S(=O)(=O)N2CCCC2C(=O)NC2CCCCC2)cn1C` (stereo not drawn), the RP-LC retention time turned out to be 875 s. In turn, `CCCn1c(CCNC(=O)c2ccc(C)c(F)c2)nc2cccnc21` registered an RP-LC retention time of 695 s.

In the case of `Cc1cccc(N2CCN(c3cc(C(=O)O)c4cc(NC(=O)C(C)C)ccc4n3)CC2)c1C`, the RP-LC retention time is 732 s. With `Cn1c(=O)oc2cc(-c3noc(CNC(=O)Cc4ccc(Cl)cc4)n3)ccc21`, the RP-LC retention time stood at 807 s.

`Cc1ccc(Cl)cc1NS(=O)(=O)c1cc2c(s1)CCN(C(=O)C1CC1)C2` gave an RP-LC retention time of 901 s. For the molecule `CCOc1ccc(-c2cn3ccn(-c4cc(Cl)ccc4C)c(=O)c3n2)cc1`, the RP-LC retention time worked out at 934 s. `O=C(NC1CCCCC1)c1nnc(-c2ccc(S(=O)(=O)N3CCOCC3)cc2)o1` came in with an RP-LC retention time of 854 s.

As for `COc1cc(OC)c(NC(=O)Cc2cn3cc(F)ccc3n2)cc1Cl`, the RP-LC retention time is 637 s. With `Cc1cccc(-c2noc(Cn3c(=O)n(Cc4ccccc4Cl)c(=O)c4sccc43)n2)c1`, the RP-LC retention time came to 1150 s.

Turning to `CC(C)c1cnn2c(NCc3ccccc3)cc(NCCCCCCN)nc12`, the RP-LC retention time was 653 s. On to `Cc1nc(N2CCOCC2)c2c(C(=O)Nc3ccccc3F)c(C)oc2n1`, for which the RP-LC retention time is 805 s. `O=C(Cn1cccc1-c1nc(-c2ccc3c(c2)OCO3)no1)Nc1cccc(Cl)c1` returned an RP-LC retention time of 1060 s. Regarding `CCN(CC)CCCNC(=O)c1cc2n(n1)CC(C)(C(=O)NCc1ccc(F)cc1)N(C)C2=O` (stereo not drawn), the RP-LC retention time was 596 s. For `CC(=O)N1CCc2[nH]c3ccc(C(=O)NCc4ccc(N5CCN(C)CC5)cc4)cc3c2C1`, the RP-LC retention time was found to be 573 s.

For the molecule `O=C(NCCN1CCCC1)c1cccc(-c2ccc(N3CCCCCC3)nc2)c1`, the RP-LC retention time turned out to be 574 s. With `C[C@H]1CC[C@@H]2[C@@H](C)[C@H]3[C@H](C[C@H]4[C@@H]5CC[C@H]6C[C@@H](O)CC[C@]6(C)[C@H]5CC[C@]34C)N2C1`, the RP-LC retention time is 763 s. As for `CC1(C)CC(=O)C2=C(C1)N(CC1CCCO1)C(=O)C2(NC(=O)c1cccnc1)C(F)(F)F` (stereo not drawn), the figure is 719 s. Molecule `O=C(NCCC1CCN(C(=O)Nc2ccc(F)cc2F)CC1)c1ccco1` displayed an RP-LC retention time of 700 s. For `CCOc1ccc(C(O)CN2CCN(C3CCCCC3)CC2)cc1` (stereo not drawn) the value was 569 s.
